The target of this assay is T1, human mAChR M4 (Homo sapiens, UniProt P08173).
T1 construct: expressed in transfected cells
T1 sequence (P08173 1-479): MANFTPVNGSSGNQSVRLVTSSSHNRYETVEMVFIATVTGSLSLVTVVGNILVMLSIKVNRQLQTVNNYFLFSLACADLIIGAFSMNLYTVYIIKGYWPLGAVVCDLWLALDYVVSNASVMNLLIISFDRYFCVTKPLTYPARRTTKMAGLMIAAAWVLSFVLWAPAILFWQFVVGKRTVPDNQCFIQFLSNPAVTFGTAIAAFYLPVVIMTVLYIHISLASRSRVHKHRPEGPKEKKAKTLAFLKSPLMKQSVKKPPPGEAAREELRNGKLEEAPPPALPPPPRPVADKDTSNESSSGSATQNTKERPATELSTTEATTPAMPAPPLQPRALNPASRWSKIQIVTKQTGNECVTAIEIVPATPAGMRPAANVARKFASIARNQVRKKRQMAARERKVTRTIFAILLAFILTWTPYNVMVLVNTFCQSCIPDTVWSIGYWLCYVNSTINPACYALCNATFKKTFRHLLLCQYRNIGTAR
The experiment in a line: mAChR M4 cell-based functional assay (calcium mobilization, CHO-K1 hM4-Gqi5 cells). Conditions: for Emax at 30 µM: CHO-K1, % ACh maximum at 30 μM, human M4; for EC50: positive allosteric modulator activity, increase in the EC20 acetylcholine response, CHO-K1 hM4-Gqi5 cells, read-out: Human M4 EC50. In short, it runs like this:
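Fluorescent calcium read-out (Fluo-4 AM, FDSS, 1 Hz) in hM4-Gqi5 CHO-K1 cells, 11-point 1:3 compound series. Agonism scored on compound addition, PAM activity as increase of the 144 s EC20 acetylcholine response, antagonism as decrease of the 230 s EC80 response; four-parameter logistic fits give EC50 and Emax.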

Regarding `Cc1ccc(F)c(Oc2cnc3c(c2)CN(c2ncc(C#N)cc2C)CC3)c1` [Example 368, 6-(3-(2-fluoro-5-methylphenoxy)-7,8-dihydro-1,6-naphthyridin-6(5H)-yl)-5-methylnicotinonitrile], the Emax (commonly the size of the effect at its maximum, as opposed to the concentration needed) at 30 µM came to 94% and the EC50 (usually the concentration needed to bring the measured effect to its halfway point) came to 1700 nM.

Take `Cc1nc(Cl)c(C)c(N2CCc3ncc(Oc4ccc5c(c4)OCCO5)cc3C2)n1` [compound 206, 6-(6-chloro-2,5-dimethyl-pyrimidin-4-yl)-3-(2,3-dihydro-1,4-benzodioxin-6-yloxy)-7,8-dihydro-5H-1,6-naphthyridine]: the Emax at 30 µM turned out to be 77% and the EC50 is 534 nM.

Take `Cc1cc(C(=O)NCc2ccccn2)cnc1N1CCc2ncc(-c3cn(C)nc3C)cc2C1` [Example 458, 6-(3-(1,3-dimethyl-1H-pyrazol-4-yl)-7,8-dihydro-1,6-naphthyridin-6(5H)-yl)-5-methyl-N-(pyridin-2-ylmethyl)nicotinamide]: the Emax at 30 µM turned out to be 84% and the EC50 is 562 nM.

Regarding `Cc1nc(Cl)nc(N2CCc3ncc(C(F)(F)F)cc3C2)c1C` [compound 253, 6-(2-chloro-5,6-dimethylpyrimidin-4-yl)-3-(trifluoromethyl)-5,6,7,8-tetrahydro-1,6-naphthyridine], the Emax at 30 µM amounted to 94% and the 50% effective concentration (EC50) worked out at 200 nM.

Regarding `COC1CN(C(=O)c2cc(C)c(N3CCc4ncc(N5CCCn6nccc65)cc4C3)nn2)C1` [Example 548, (6-(3-(6,7-dihydropyrazolo[1,5-a]pyrimidin-4(5H)-yl)-7,8-dihydro-1,6-naphthyridin-6(5H)-yl)-5-methylpyridazin-3-yl)(3-methoxyazetidin-1-yl)methanone], the Emax at 30 µM is 115% and the EC50 is 25 nM.

For `[2H]C([2H])([2H])c1cnc2c(c1)CN(c1nnc(C#N)cc1C)CC2` [Example 421, 5-methyl-6-(3-(methyl-d3)-7,8-dihydro-1,6-naphthyridin-6(5H)-yl)pyridazine-3-carbonitrile], the EC50 is 336 nM. Under “CHO-K1”, the Emax is 89%.

Take `CCCn1cc(-c2cnc3c(c2)CN(c2ncc(C#N)cc2C)CC3)cn1` [compound 108, 5-methyl-6-[3-(1-propylpyrazol-4-yl)-7,8-dihydro-5H-1,6-naphthyridin-6-yl]pyridine-3-carbonitrile]: the Emax at 30 µM was determined as 90% and the EC50 was 330 nM.

For the molecule `Cc1c(C#N)nnc(N2CCc3ncc(N4CCCn5nccc54)cc3C2)c1C` [Example 342, 6-(3-(6,7-dihydropyrazolo[1,5-a]pyrimidin-4(5H)-yl)-7,8-dihydro-1,6-naphthyridin-6(5H)-yl)-4,5-dimethylpyridazine-3-carbonitrile], the Emax at 30 µM is 86% and the EC50 came out at 64 nM.

For `Cc1nn(C)cc1-c1cnc2c(c1)CN(c1nc(N3CCOCC3)nc(C)c1C)CC2` [compound 270, 4-(4-(3-(1,3-dimethyl-1H-pyrazol-4-yl)-7,8-dihydro-1,6-naphthyridin-6(5H)-yl)-5,6-dimethylpyrimidin-2-yl)morpholine], the Emax at 30 µM was found to be 70% and the EC50 was 896 nM.

Regarding `Cc1nc(Cl)c(C)c(N2Cc3cc([N+](=O)[O-])cnc3C(C)C2)n1` (stereo not shown) [compound 222, 6-(6-chloro-2,5-dimethylpyrimidin-4-yl)-8-methyl-3-nitro-5,6,7,8-tetrahydro-1,6-naphthyridine], the maximal response (Emax) at 30 µM was determined as 91% and the EC50 is 333 nM.

For the molecule `Cc1cc(C(=O)NC2CCOCC2)cnc1N1CCc2ncccc2C1` [compound 122, 6-(7,8-dihydro-5H-1,6-naphthyridin-6-yl)-5-methyl-N-tetrahydropyran-4-yl-pyridine-3-carboxamide], the Emax at 30 µM was 55% and the EC50 was not below 10000 nM.

As to `Cc1cc(C(=O)NCc2ccc(Cl)nc2Cl)cnc1N1CCc2ncc(-c3cn(C)nc3C)cc2C1` [Example 462, N-((2,6-dichloropyridin-3-yl)methyl)-6-(3-(1,3-dimethyl-1H-pyrazol-4-yl)-7,8-dihydro-1,6-naphthyridin-6(5H)-yl)-5-methylnicotinamide], the maximal effect (Emax) at 30 µM came out at 72% and the EC50 was 714 nM.

With `Cc1nc(Cl)c(C)c(N2CCc3ncc(-c4sc(C)nc4C)cc3C2)n1` [compound 198, 5-[6-(6-chloro-2,5-dimethyl-pyrimidin-4-yl)-7,8-dihydro-5H-1,6-naphthyridin-3-yl]-2,4-dimethyl-thiazole], the Emax at 30 µM turned out to be 92% and the EC50 was found to be 137 nM.

For `Cc1c(Cl)nc(C(F)(F)F)nc1N1CCc2ncc(Nc3ccnn3C)cc2C1` [compound 247, 6-(6-chloro-5-methyl-2-(trifluoromethyl)pyrimidin-4-yl)-N-(1-methyl-1H-pyrazol-5-yl)-5,6,7,8-tetrahydro-1,6-naphthyridin-3-amine], the Emax at 30 µM was determined as 91% and the EC50 was 764 nM.

Consider `Cc1cc(C(=O)N2CC(F)(F)C2)nnc1N1CCc2ncc(N3CCCn4nccc43)cc2C1` [Example 544, (3,3-difluoroazetidin-1-yl)(6-(3-(6,7-dihydropyrazolo[1,5-a]pyrimidin-4(5H)-yl)-7,8-dihydro-1,6-naphthyridin-6(5/)-yl)-5-methylpyridazin-3-yl)methanone], for which the Emax at 30 µM was determined as 105% and the EC50 was 45 nM.

Turning to `Cc1nc(Cl)c(C)c(N2CCc3nc(C(F)(F)F)ccc3C2)n1` [compound 218, 6-(6-chloro-2,5-dimethylpyrimidin-4-yl)-2-(trifluoromethyl)-5,6,7,8-tetrahydro-1,6-naphthyridine], the Emax at 30 µM came out at 83% and the EC50 worked out at 759 nM.

On to `Cc1cc(C#N)cnc1N1CCc2ncc(Nc3cc(F)cc(F)c3F)cc2C1` [compound 116, 5-methyl-6-[3-(2,3,5-trifluoroanilino)-7,8-dihydro-5H-1,6-naphthyridin-6-yl]pyridine-3-carbonitrile], for which the Emax at 30 µM was 95% and the EC50 is 336 nM.

Turning to `Cc1cc(C(=O)N2CC(C(F)F)C2)nnc1N1CCc2ncc(N3CCCn4nccc43)cc2C1` [Example 524, (3-(difluoromethyl)azetidin-1-yl)(6-(3-(6,7-dihydropyrazolo[1,5-a]pyrimidin-4(5H)-yl)-7,8-dihydro-1,6-naphthyridin-6(5H)-yl)-5-methylpyridazin-3-yl)methanone], the Emax at 30 µM came to 93% and the EC50 was found to be 18 nM.

On to `Cc1nc(C(F)(F)F)nc(N2CCc3ncc(C(F)(F)F)cc3C2)c1C` [compound 252, 6-(5,6-dimethyl-2-(trifluoromethyl)pyrimidin-4-yl)-3-(trifluoromethyl)-5,6,7,8-tetrahydro-1,6-naphthyridine], for which the Emax at 30 µM amounted to 75% and the EC50 was 1030 nM.

`Cc1cc(C(=O)NCc2ccccc2)cnc1N1CCc2ncccc2C1` [compound 70, N-benzyl-6-(7,8-dihydro-5H-1,6-naphthyridin-6-yl)-5-methyl-pyridine-3-carboxamide]: the Emax at 30 µM was 80% and the EC50 was determined as 2930 nM.

With `Cc1cc(C(=O)NC2CC3(COC3)C2)cnc1N1CCc2ncc(-c3cn(C)nc3C)cc2C1` [Example 475, 6-(3-(1,3-dimethyl-1H-pyrazol-4-yl)-7,8-dihydro-1,6-naphthyridin-6(5H)-yl)-5-methyl-N-(2-oxaspiro[3.3]heptan-6-yl)nicotinamide], the Emax at 30 µM was 64% and the EC50 came out at 1740 nM.

As to `Cc1c(C#N)nnc(N2CCc3ncc(N4CCOC(c5ccccn5)C4)cc3C2)c1C` (stereo not shown) [Example 380, 4,5-dimethyl-6-(3-(2-(pyridin-2-yl)morpholino)-7,8-dihydro-1,6-naphthyridin-6(5H)-yl)pyridazine-3-carbonitrile], the Emax at 30 µM is 63% and the concentration giving a half-maximal response (EC50) turned out to be 2150 nM.

With `Cc1cc(F)ncc1-c1cnc2c(c1)CN(c1ncc(C#N)cc1C)CC2` [Example 436, 6-(3-(6-fluoro-4-methylpyridin-3-yl)-7,8-dihydro-1,6-naphthyridin-6(5H)-yl)-5-methylnicotinonitrile], the maximal response (Emax) at 30 µM stood at 98% and the EC50 is 69 nM.

Regarding `Cc1cc(Nc2cnc3c(c2)CN(c2ncc(C#N)cc2C)CC3)n(CCC(C)C)n1` [Example 313, 6-(3-((1-isopentyl-3-methyl-1/- pyrazol-5-yl)amino)-7,8-dihydro-1,6-naphthyridin-6(5H)-yl)-5-methylnicotinonitrile], the Emax at 30 µM turned out to be 42% and the EC50 was 605 nM.

In the case of `Cc1cc(C#N)cnc1N1CCc2ncc(C(C)(O)C(F)(F)F)cc2C1` (stereo not shown) [Example 426, 5-methyl-6-(3-(1,1,1-trifluoro-2-hydroxypropan-2-yl)-7,8-dihydro-1,6-naphthyridin-6(5H)-yl)nicotinonitrile], the Emax at 30 µM came out at 95% and the EC50 turned out to be 577 nM.

In the case of `Cc1cc(C(N)=O)cnc1N1CCc2ncc(C(F)(F)F)cc2C1` [Example 448, 5-methyl-6-(3-(trifluoromethyl)-7,8-dihydro-1,6-naphthyridin-6(5H)-yl)nicotinamide], the maximal effect (Emax) at 30 µM is 102% and the EC50 was determined as 537 nM.
